The test has as its system mice mesenteric arteries. As to the kind of experiment: Vascular reactivity: vasorelaxation of phenylephrine-precontracted mesenteric arteries (wire or pressure myograph). In kind it is cell-based. Conditions: for direct vascular action: dose-dependent vasorelaxation compared with Healthberry 865 / vasorelaxation reached: single anthocyanins 1 - 100 µg/mL; for vasorelaxation reached: dose-response curves. As for the experimental part: Second-order branches of the mesenteric arterial tree were removed from mice to perform vascular studies. […] First, an analysis of vascular reactivity curves was performed. In particular, vasoconstriction was assessed with 80 mmol/L of KCI or with increasing doses of phenylephrine (from 10^-9 M to 10^-6 M) in control conditions. Endothelium-dependent and -independent relaxations were assessed by measuring the dilatory responses of mesenteric arteries to cumulative concentrations of acetylcholine (from 10^-9 M to 10^-6 M) or nitroglycerine (from 10^-9 M to 10^-6 M) respectively, in vessels precontracted with phenylephrine at the dose necessary to obtain a similar level of precontraction in each ring (80% of initial KCI-evoked contraction). Caution was taken to avoid endothelial damage; functional integrity was reflected by the response to acetylcholine (from 10^-9 M to 10^-6 M). […]
F) Comparison of vasorelaxant effect of AvailOm®, ω 3-FA, ω 3-EE or L-Lysine. Statistical analyses were performed using two-way ANOVA followed Bonferroni post-hoc test. *p<0.05; **p<0.01, ***p<0.001.

The mark [1] stands for this setting: phenylephrine-precontracted mice mesenteric arteries.

On to `OC[C@H]1O[C@@H](Oc2cc3c(O)cc(O)cc3[o+]c2-c2ccc(O)c(O)c2)[C@H](O)[C@@H](O)[C@@H]1O` [C3-glu, Cyanidin-3-glucoside], for which the “direct vascular action: dose-dependent vasorelaxation compared with Healthberry 865” value under setting [1] is given as “none of the single anthocyanins was able to evoke a dose-dependent vasorelaxation comparable to that observed after Healthberry 865® administration”.

Take `OC[C@H]1O[C@@H](Oc2cc3c(O)cc(O)cc3[o+]c2-c2cc(O)c(O)c(O)c2)[C@H](O)[C@@H](O)[C@@H]1O` [DP3-glu, Delphinidin-3-glucoside]: the “direct vascular action: dose-dependent vasorelaxation compared with Healthberry 865” value under setting [1] is “none of the single anthocyanins was able to evoke a dose-dependent vasorelaxation comparable to that observed after Healthberry 865® administration”.

In the case of Peonidin-3-galactoside [PEO3-gal], the “direct vascular action: dose-dependent vasorelaxation compared with Healthberry 865” value under setting [1] is recorded as “none of the single anthocyanins was able to evoke a dose-dependent vasorelaxation comparable to that observed after Healthberry 865® administration”.

Take `OC[C@H]1O[C@@H](Oc2cc3c(O)cc(O)cc3[o+]c2-c2cc(O)c(O)c(O)c2)[C@H](O)[C@@H](O)[C@H]1O` [DP3-gal, Delphinidin-3-galactoside]: the vasorelaxation reached result is “about 32,5%”. Moreover, the “direct vascular action: dose-dependent vasorelaxation compared with Healthberry 865” value under setting [1] is given as “none of the single anthocyanins was able to evoke a dose-dependent vasorelaxation comparable to that observed after Healthberry 865® administration”.

With `OC[C@H]1O[C@@H](Oc2cc3c(O)cc(O)cc3[o+]c2-c2ccc(O)c(O)c2)[C@H](O)[C@@H](O)[C@H]1O` [C3-gal, Cyanidin-3-galactoside], under setting [1], the “direct vascular action: dose-dependent vasorelaxation compared with Healthberry 865” value is on record as “able to reproduce the direct vasorelaxant effect of Healthberry 865®”.

Regarding `Oc1cc(O)c2cc(O[C@H]3OC[C@H](O)[C@H](O)[C@H]3O)c(-c3cc(O)c(O)c(O)c3)[o+]c2c1` [DP3-ara, Delphinidin-3-arabinoside], under setting [1], the “direct vascular action: dose-dependent vasorelaxation compared with Healthberry 865” value is given as “none of the single anthocyanins was able to evoke a dose-dependent vasorelaxation comparable to that observed after Healthberry 865® administration”.

For `C[C@@H]1O[C@@H](OC[C@H]2O[C@@H](Oc3cc4c(O)cc(O)cc4[o+]c3-c3ccc(O)c(O)c3)[C@H](O)[C@@H](O)[C@@H]2O)[C@H](O)[C@H](O)[C@H]1O` [C3-rut, Cyanidin-3-rutinoside], the vasorelaxation reached is recorded as ~36,5%. Further, under setting [1], the “direct vascular action: dose-dependent vasorelaxation compared with Healthberry 865” value is “none of the single anthocyanins was able to evoke a dose-dependent vasorelaxation comparable to that observed after Healthberry 865® administration”.

Take `COc1cc(-c2[o+]c3cc(O)cc(O)c3cc2O[C@@H]2O[C@H](CO)[C@H](O)[C@H](O)[C@H]2O)cc(OC)c1O` [MAL3-gal, Malvidin-3-galactoside]: under setting [1], the “direct vascular action: dose-dependent vasorelaxation compared with Healthberry 865” value was “none of the single anthocyanins was able to evoke a dose-dependent vasorelaxation comparable to that observed after Healthberry 865® administration”.

For `COc1cc(-c2[o+]c3cc(O)cc(O)c3cc2O[C@@H]2O[C@H](CO)[C@@H](O)[C@H](O)[C@H]2O)cc(O)c1O` [PT3-glu, Petunidin-3-glucoside], under setting [1], the “direct vascular action: dose-dependent vasorelaxation compared with Healthberry 865” value is listed as “none of the single anthocyanins was able to evoke a dose-dependent vasorelaxation comparable to that observed after Healthberry 865® administration”.

Regarding `NCCCC[C@H](N)C(=O)O` [L-Lysine], the “direct vasorelaxant action (dose-response)” value (phenylephrine-precontracted mice mesenteric arteries, increasing doses 5 - 300 µg/mL) is reported as “did not evoke any vasorelaxant effect”.

Regarding `COc1cc(-c2[o+]c3cc(O)cc(O)c3cc2O[C@@H]2O[C@H](CO)[C@@H](O)[C@H](O)[C@H]2O)cc(OC)c1O` [MAL3-glu, Malvidin-3-glucoside], the “direct vascular action: dose-dependent vasorelaxation compared with Healthberry 865” value under setting [1] is listed as “none of the single anthocyanins was able to evoke a dose-dependent vasorelaxation comparable to that observed after Healthberry 865® administration”.

The values are drawn from patent publication US20230037453A1, “PREPARATION FOR USE AS VASORELAXANT” (Evonik Operations GmbH, priority 2020, published 2023).
